Test results from US5661146A, “Substituted dibenzoxazepine urea compounds, pharmaceutical compositions and methods of use” (G.D. Searle & Co., priority 1995, dated 1997).

Assays:
mice = test: Writhing Assay (PBQ-induced writhing, analgesic activity in mice); assay type: in vivo, mouse (Charles River male albino mice); settings: among compounds of the invention tested
From the text: The Writhing Assay is one of the most widely-used experimental procedures for measuring the analgesic activity of different narcotic and nonnarcotic analgesic agents, and involves the continuous, chemically-induced pain of visceral origin to an animal, such as a mouse or rat. [Gyires et al., Arch. int. […] Drugs which reduce the number of writhes of the animal appear to restore the normal nociceptive threshold of the animal. […] Charles River male albino mice, weighing 20 to 30 grams, were used in this assay. […] Ten mice which were given saline in place of a test compound of the invention were used as a control group. Five minutes later, each mouse was individually placed into a glass beaker for observation, and the number of writhes occurring during the following ten-minute period was counted. […] The standard initial screening dose of a test compound employed in this assay was 30 mpk […].

[1] = molecular target: T1, prostaglandin E2 -induced contractions of segments of guinea pig ileum (Cavia porcellus, UniProt A0A286XHJ6); test: Prostaglandin (PGE) Antagonism Assay (prostaglandin E2-induced contractions of guinea pig ileum segments); settings: initial test compound concentration 3 micromolar
T1 construct: Segments of ileum about 2 cm long were then cut and mounted in a 10 mL tissue bath; from tissue; host or cells: ileum segments of male albino guinea pigs
T1 sequence (A0A286XHJ6 1-405): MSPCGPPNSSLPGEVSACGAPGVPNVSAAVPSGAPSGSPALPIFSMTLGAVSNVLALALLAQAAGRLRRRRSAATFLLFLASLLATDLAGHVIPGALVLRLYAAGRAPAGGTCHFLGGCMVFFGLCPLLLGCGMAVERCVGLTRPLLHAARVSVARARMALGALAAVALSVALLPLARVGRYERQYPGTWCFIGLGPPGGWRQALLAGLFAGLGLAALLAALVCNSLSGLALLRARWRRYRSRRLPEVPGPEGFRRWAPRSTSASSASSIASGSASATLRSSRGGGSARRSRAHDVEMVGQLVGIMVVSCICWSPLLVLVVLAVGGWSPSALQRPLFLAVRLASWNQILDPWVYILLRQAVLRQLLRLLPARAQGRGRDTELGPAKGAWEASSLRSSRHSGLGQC
From the text: The ilea were then quickly removed from the guinea pigs and placed in a modified Tyrode solution, a solution which is known to those skilled in the art, containing one-half of the usual amount of magnesium ions. […] Data for a control prostaglandin E2 dose response curve plotting concentration of prostaglandin E2 versus the intensity of contractions, detected isotonically, was then obtained by experimentally adjusting the dose of the prostaglandin E2 being injected into the tissue bath, in a manner known by those of skill in the art. Solutions or suspensions containing an initial concentration (3 micromolar) of a test compound in modified Tyrode solution ("test solutions/suspensions") were then separately substituted for the control bath solution. Each test solution/suspension was then kept in constant contact with the ileum tissue, except for brief periods to drain the bath in preparation for rinsing with fresh test solution/suspension. A second prostaglandin E2 dose response curve was then generated for prostaglandin E2 in the presence of a test compound.

In the case of `COC(=O)[C@H](C)NC(=O)N1Cc2ccccc2Oc2ccc(Cl)cc21` [Example 32, methyl (L)-2R-[[(8-chlorodibenz[b,f][1,4]oxazepine-10-(11H)-yl)carbonyl]amino]propanoate], the “potency ranking in the Writhing Assay (in words)” value (mice) is reported as “most potent compound of the invention tested in this assay”.

With `CCN(CC)CCCCCOC(=O)N1Cc2ccccc2Oc2ccc(Cl)cc21` [Example 29, 5-(diethylamino)pentyl 8-chlorodibenz[b,f]-[1,4]oxazepine-10(11H)-carboxylate] the “PGE IN GUINEA PIG ILEUM, dose ratio given as activity word” value [1] was “Active”.
